Measured values from patent US20240391904A1, “DIHYDROPYRIMIDINE BASED COMPOUND, PREPARATION METHOD THEREFOR AND USE OF THEREOF” (CHENGDU SHIBEIKANG BIOMEDICAL TECHNOLOGY CO., LTD., priority 2021, published 2024).
Marks after values point to notes of the source that are not given here.

How the values were obtained:
[1] = tested on: KM mice; experiment: Mouse cough test (ammonia-induced coughing); assay type: in vivo; details: for cough suppressing effect compared with the positive compound / duration of the cough suppression action: 30 mg/kg; for Number of Coughs (time): mice; for reduction in the number of coughs at 3 mg/kg: compared with model group; for duration of the cough suppression action: 30 to 120 min after administration
Description: Compounds of Example 1-24 (synthesized in the inventor's laboratory), positive control drug (gefapixant, batch No: 01030-210326-2-1, purchased from Holder Pharmaceuticals), the compound of Comparative Example 1 (synthesized in the inventor's laboratory).
Healthy adult KM mice, half of them are male and half of them are female, 6 per group, weighing about 28-30 g.
Most of the animal coughing models currently reported in the literatures use mechanical, chemical and electrical stimulations to stimulate the nerves and receptors of the animals to trigger coughing. According to the characteristics of the candidate compounds and the existing similar target compounds for reference, the method of concentrated ammonia induction was initially chosen to establish the cough modeling test in mice.
Preparation of 50% ammonia solution: 2.5 ml of ammonia was dissolved in […] of a 0.9% sodium chloride solution for injection and mixed evenly.
Preparation of a solution of the compound of Comparative Example 1: 9 mg of the compound of Comparative Example 1 was weighed and dissolved in 3 ml of a 0.5% CMC-Na solution, and mixed evenly to prepare a 3 mg/ml solution.
Preparation of a solution of the example compounds: 9 mg of the example compound was weighed and dissolved in 3 ml of a 0.5% CMC-Na solution, and mixed evenly to prepare a 3 mg/ml solution.
Grouping: a positive control group, a Comparative Example 1 group, Example 1 group-Example 24 group, and a model group were set up. Six KM mice were taken from each group and administered by gavage; here, the Comparative Example 1 group was given the compound of Comparative Example 1, the positive control group was given the positive control drug (gefapixant, commercially purchased), the Example groups were given the compounds prepared in the corresponding Examples, with each group given one of three dosages: 30 mg/kg, […], and 3 mg/kg; and the model group was given the same volume of 0.5% CMC-Na solution.
30 min, 60 min or 120 min after administration, the mice were placed in a 500 ml beaker with a cotton ball (weight 100±5 mg) containing 0.3 ml of 50% ammonia.
(1) Judgment criteria of coughing: coughing was manifest in contraction of abdominal muscles or chest contraction, with mouth wide opening and a coughing sound.
(2) The number of coughs (times) within 3 min was recorded with a stopwatch, and the data were statistically analyzed by software, with the data in each group shown in mean±standard deviation. A one-way analysis of variance among the groups was conducted, and P<0.05 was considered a difference having a statistical significance.

[2] = target: T1, human P2X3 receptor (Homo sapiens, UniProt P56373); experiment: In vitro bioactivity evaluation: FLIPR antagonist mode, HEK 293 cells stably transfected with human P2X3 receptor, BZATP agonist
T1 sequence (P56373 1-397): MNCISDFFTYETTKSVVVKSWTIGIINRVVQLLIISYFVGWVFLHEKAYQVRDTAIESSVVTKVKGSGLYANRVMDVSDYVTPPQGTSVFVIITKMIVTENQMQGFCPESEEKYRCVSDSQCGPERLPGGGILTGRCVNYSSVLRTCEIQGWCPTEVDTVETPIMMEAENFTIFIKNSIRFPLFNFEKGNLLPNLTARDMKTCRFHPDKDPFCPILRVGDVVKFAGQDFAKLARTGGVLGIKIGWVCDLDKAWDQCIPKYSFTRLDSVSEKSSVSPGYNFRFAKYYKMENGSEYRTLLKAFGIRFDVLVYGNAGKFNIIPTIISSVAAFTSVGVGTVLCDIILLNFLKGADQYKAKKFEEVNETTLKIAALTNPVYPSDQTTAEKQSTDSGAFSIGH
Protocol: Cell culture medium: DMEM high glucose; 10% FBS; 1% PenStrep.
The Petri dish was placed in an incubator for 1-3 minutes or until the cells were digested, 3 mL of a complete medium was then added to terminate the digestion, and the cell density was determined by a cell counter. • 2) After centrifugation at 1000 rpm/min for 5 min, the cells were resuspended in a growth medium and the volume of the suspension was adjusted to reach a cell density of 4×10^5 cells/mL (1×10^4 cells/25 μL). • 3) 10 μL of 5× Matrigel was added into a black microplate, and the microplate was placed in an incubator for 15 min. The microplate was removed and invertedly centrifuged at 300 g/min for 30 s to remove the 5× Matrigel.

[3] = tested on: SD rats; experiment: Taste disorder test (quinine water versus tap water intake); assay type: in vivo, rat; details: for effect on the taste sense: 10 mg/kg intravenously, quinine/tap water ratio compared with vehicle group; for Quinine/tap water (%): 10 mg/kg tail intravenous injection, 0-15 min after administration, 0.3 mM quinine hydrochloride water versus tap water
Protocol: Compounds of Examples 1, 9, 12, 15, 16, 24 (synthesized in the laboratory of the present inventor), the positive control drug (gefapixant, batch No: 01030-210326-2-1, purchased from Holder Pharmaceuticals).
0.9% sodium chloride solution for injection, quinine hydrochloride (Quinie, batch No: C12476271)
Healthy adult SD rats, all males, weighing about 280-300 g.
Preparation of 0.3 mM quinine solution: 119.20 mg of quinine hydrochloride was weighed and dissolved in 1000 ml of tap water, and mixed evenly.
Preparation of the test sample solution: 40 mg of a test sample was dissolved in DMSO and a solution of the solubilizer HS-15 was added, mixed evenly, and 16 ml of saline was added to formulate a 2.5 mg/ml solution.
Animal and grouping: male SD rats weighed about 160-180 g each, with 10 of a similar average weight in each group, were housed in seperate cages.
Drinking habit training: each group was given normal drinking water for 30 minutes at 8:30 am and 16:30 pm every day, and no access of water for the rest of the day for 5 days, and two bottles of water were changed every day at the left and right positions.
Administration: with no access to water the night before the experiment, in the following morning the test group was given 4 mL/kg (10 mg/kg) of the test sample by tail intravenous injection, and the model group was given 4 mL/kg (10 mg/kg) of 0.5% HS-15 by intravenous injection.
The animals were allowed to drink freely for 15 min, and the amount of water consumed from the two bottles was measured to the nearest 0.1 ml.
(2) Statistical analysis of the data: the drinking volume of the quinine bitter water and tap water were recorded separately, as well as the percentage of quinine water to the tap water, and the significance of the difference between the groups was determined by ANOVA.

[4] = 30 mg/kg by gavage, 30 min after administration, coughs within 3 min, ammonia-induced
[5] = 3 mg/kg by gavage, 60 min after administration, coughs within 3 min
[6] = 10 mg/kg by gavage, 60 min after administration, coughs within 3 min
[7] = 30 mg/kg by gavage, 60 min after administration, coughs within 3 min (Table 5)
[8] = 30 mg/kg by gavage, 60 min after administration, coughs within 3 min (Table 6)
[9] = 30 mg/kg by gavage, 120 min after administration, coughs within 3 min

Row | Compound | cough suppressing effect compared with the positive compound ([1]; 30 min after administration) | Number of Coughs (time) [1, 4] | IC50 [2] [nM] | effect on the taste sense [3] | Quinine/tap water (%) [3] [%^Δ] | reduction in the number of coughs at 3 mg/kg ([1]; 60 min after administration) | cough suppressing efficacy at 10 mg/kg ([1]; 60 min after administration) | duration of the cough suppression action [1] | Number of Coughs (time) [1, 5] | Number of Coughs (time) [1, 6] | Number of Coughs (time) [1, 7] | Number of Coughs (time) [1, 8] | Number of Coughs (time) [1, 9]
1 | COC(=O)[C@@H](C)Cn1c(=O)cc(Nc2ccc(Oc3cnccn3)cc2)n(Cc2ccc(Cl)cc2)c1=O [Compound 1] | stronger than that of the positive compound | 15.33** time | < 10 | little or no effect on the taste sense | 41.48 |  |  |  |  |  |  |  | 
2 | C[C@@H](Cn1c(=O)cc(Nc2ccc(Oc3ccccn3)cc2)n(Cc2ccc(Cl)cc2)c1=O)C(=O)NS(C)(=O)=O [Compound 9] | stronger than that of the positive compound | 13.62** time | 10.1 to 50 | little or no effect on the taste sense | 39.84 | statistically significant (P<0.01) reduction in the number of coughs | improved cough suppressing efficacy than the positive control drug | significantly prolonged compared with that of the compound of Comparative Example 1 | 25.37** time | 19.54**^Δ time | 16.33** time | 16.33** time | 23.83**^Δ time
3 | CC(C)(Cn1c(=O)cc(Nc2ccc(Oc3ccccn3)cc2)n(Cc2ccc(Cl)cc2)c1=O)C(=O)NS(C)(=O)=O [Compound 12] | stronger than that of the positive compound | 15.67** time | < 10 | little or no effect on the taste sense | 37.18 |  | improved cough suppressing efficacy than the positive control drug | significantly prolonged compared with that of the compound of Comparative Example 1 | 33.17 time | 21.17**^Δ time | 17.17** time | 17.17** time | 20.17*^Δ time
4 | CS(=O)(=O)NC(=O)C1(Cn2c(=O)cc(Nc3ccc(Oc4ccccn4)cc3)n(Cc3ccc(Cl)cc3)c2=O)CC1 [Compound 15] | stronger than that of the positive compound | 18.64** time | 10.1 to 50 | little or no effect on the taste sense | 40.22 | statistically significant (P<0.01) reduction in the number of coughs | improved cough suppressing efficacy than the positive control drug | significantly prolonged compared with that of the compound of Comparative Example 1 | 24.83** time | 20.83**^Δ time | 16.33** time | 16.33** time | 23.83**^Δ time
5 | C[C@@H](Cn1c(=O)cc(Nc2ccc(Oc3ncccc3F)cc2)n(Cc2ccc(Cl)cc2)c1=O)C(=O)NS(C)(=O)=O [Compound 16, (S)-3-(3-(4-chlorobenzyl)-4-(4-(3-(3-fluoropyridin-2-yl)oxyphenyl)amino)-2,6-dioxo-3,6-dihydropyrimidin-1(2H)yl)-2-methyl-N-(methylsulfonyl)propionamide group] |  | 19.34** time | < 10 | little or no effect on the taste sense | 42.53 | statistically significant (P<0.01) reduction in the number of coughs | improved cough suppressing efficacy than the positive control drug | significantly prolonged compared with that of the compound of Comparative Example 1 | 23.81** time | 15.13**^Δ time | 16.11** time | 16.11** time | 18.13**^Δ time
